# According to PMC6028563, “Probing Substituents in the 1- and 3-Position: Tetrahydropyrazino-Annelated Water-Soluble Xanthine Derivatives as Multi-Target Drugs With Potent Adenosine Receptor Antagonistic Activity” (Frontiers in Chemistry, 2018):
# Assays:
# [1] = molecular target: T1, rat A1 AR (Rattus norvegicus, UniProt P25099); assay: Radioligand binding assay at rat A1 AR (rat brain cortex) vs. [^3H]CCPA; details: rat (r); rat brain cortex; n = 3
# T1 construct: A1 ARs of rat brain cortical membrane; from tissue; host or cells: rat brain cortex membranes
# T1 sequence (P25099 1-326): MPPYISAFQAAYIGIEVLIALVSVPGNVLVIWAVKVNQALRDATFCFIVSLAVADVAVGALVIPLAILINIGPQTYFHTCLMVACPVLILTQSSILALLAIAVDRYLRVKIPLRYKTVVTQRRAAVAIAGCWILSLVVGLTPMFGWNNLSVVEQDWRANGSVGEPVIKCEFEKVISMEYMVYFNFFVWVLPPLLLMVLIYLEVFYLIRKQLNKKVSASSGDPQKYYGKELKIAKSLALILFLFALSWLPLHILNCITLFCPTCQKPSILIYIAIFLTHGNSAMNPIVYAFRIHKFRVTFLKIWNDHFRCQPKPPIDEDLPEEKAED
# Method: (§1) Membrane preparations and radioligand binding assays at rat A1 (rat brain cortex) and rat A2A ARs (rat brain striatum) were performed as previously described (Ozola et al., [2003]; Alnouri et al., [2015]). For assays at human A1, A2A, A2B, and A3 ARs, CHO cell membranes expressing one of the human AR subtypes were used as previously reported (Klotz et al., [1998]; Alnouri et al., [2015]; De Filippo et al., [2016]).
# (§2) The synthesized tetrahydropyrazino[2,1-f ]purinediones 13–20 were evaluated in radioligand binding assays for their affinity to A1 ARs of rat brain cortical membrane and to A2A ARs of rat brain striatal membrane preparations. Selected compounds were further investigated for their affinity to human A1 and A2A ARs recombinantly expressed in Chinese hamster ovary (CHO) cells. All compounds were additionally investigated for their affinity to human A2B and A3 ARs recombinantly expressed in CHO cells to determine their AR subtype selectivity. […] It is well known that all xanthine derivatives lacking a ribose moiety, including tricyclic compounds, can only block ARs, but never act as AR agonists; therefore, additional functional studies were not required. […] Potent MAO-B inhibitors were additionally investigated for inhibition of human MAO-A to assess their selectivity. Results are presented in Tables 1–6, and data of standard ligands are included for comparison.
# [2] = molecular target: T2, human A3 AR (Homo sapiens, UniProt P0DMS8); assay: Radioligand binding assay at human A3 AR vs. [^3H]PSB-11; details: for Ki: CHO cell membranes, n = 2 (n = 3 where marked a), read-out: Ki ± SEM, A3 vs. [^3H]PSB-11
# T2 construct: expressed in transfected cells; host or cells: CHO cells
# T2 sequence (P0DMS8 1-318): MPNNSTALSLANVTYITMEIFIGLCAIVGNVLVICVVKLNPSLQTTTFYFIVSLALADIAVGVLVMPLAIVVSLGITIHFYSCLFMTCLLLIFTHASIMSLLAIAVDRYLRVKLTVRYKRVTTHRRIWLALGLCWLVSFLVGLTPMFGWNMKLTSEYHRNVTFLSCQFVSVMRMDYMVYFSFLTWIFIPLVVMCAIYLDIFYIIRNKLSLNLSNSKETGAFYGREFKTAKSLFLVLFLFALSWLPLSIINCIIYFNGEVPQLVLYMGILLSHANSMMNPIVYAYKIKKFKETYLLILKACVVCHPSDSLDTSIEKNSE
# Method: as §1, §2
# [3] = molecular target: T3, human A2B AR (Homo sapiens, UniProt P29275); assay: Radioligand binding assay at human A2B AR vs. [^3H]PSB-603; details: for Ki: CHO cell membranes, n = 2 (n = 3 where marked a), read-out: Ki ± SEM, A2B vs. [^3H]PSB-603; for inhibition at 1 µM: at 1,000 nM, read-out: % inhibition of radioligand binding at indicated concentration, A2B vs. [^3H]PSB-603
# T3 construct: expressed in transfected cells; host or cells: CHO cells
# T3 sequence (P29275 1-332): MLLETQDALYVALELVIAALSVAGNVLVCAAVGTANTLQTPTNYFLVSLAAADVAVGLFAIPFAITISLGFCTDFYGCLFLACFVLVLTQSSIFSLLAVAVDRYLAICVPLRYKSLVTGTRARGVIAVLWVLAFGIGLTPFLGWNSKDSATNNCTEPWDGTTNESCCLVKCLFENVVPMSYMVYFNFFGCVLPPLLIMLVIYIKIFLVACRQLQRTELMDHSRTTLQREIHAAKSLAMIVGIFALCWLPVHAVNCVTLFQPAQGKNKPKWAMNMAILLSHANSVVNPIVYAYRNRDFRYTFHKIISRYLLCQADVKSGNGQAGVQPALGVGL
# Method: as §1, §2
# [4] = molecular target: T4, recombinant human MAO-A (Homo sapiens, UniProt P21397); assay: Monoamine oxidase assay (Amplex Red), MAO-A; type: biochemical; details: for inhibition at 10 µM: at 10,000 nM, read-out: % inhibition at indicated concentration, Human MAO-A; for IC50: n = 3, read-out: IC50 ± SEM, Human MAO-A
# T4 construct: purchased Sigma-Aldrich M7316; host or cells: baculovirus-infected insect cells
# T4 sequence (P21397 1-527): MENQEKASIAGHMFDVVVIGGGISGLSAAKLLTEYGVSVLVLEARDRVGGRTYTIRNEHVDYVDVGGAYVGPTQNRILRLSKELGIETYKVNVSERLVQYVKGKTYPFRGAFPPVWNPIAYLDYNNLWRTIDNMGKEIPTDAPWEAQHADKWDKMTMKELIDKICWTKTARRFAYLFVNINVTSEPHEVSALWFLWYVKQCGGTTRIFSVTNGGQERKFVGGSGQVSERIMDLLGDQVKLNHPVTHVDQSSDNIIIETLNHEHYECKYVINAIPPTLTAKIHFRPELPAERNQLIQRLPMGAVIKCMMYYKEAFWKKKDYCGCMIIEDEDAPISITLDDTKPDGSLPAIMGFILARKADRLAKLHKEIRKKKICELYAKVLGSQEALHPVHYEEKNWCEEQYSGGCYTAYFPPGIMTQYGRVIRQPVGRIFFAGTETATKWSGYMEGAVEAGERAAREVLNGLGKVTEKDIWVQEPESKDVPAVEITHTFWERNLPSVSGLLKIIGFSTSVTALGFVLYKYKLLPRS
# Method: (§3) The determination of MAO-A and MAO-B inhibition was performed using commercially available recombinant human MAO-A and MAO-B enzymes expressed in baculovirus-infected insects sells (Sigma-Aldrich, M7316 and M7441) applying the commercially available Amplex® Red monoamine oxidase assay kit (Invitrogen A12214). The assays were performed as previously described. The determination of rat MAO-B inhibition was performed using mitochondrial-enriched fractions from male Sprague Dawley rat livers. […]
# [5] = molecular target: T5, rat A2A AR (Rattus norvegicus, UniProt P30543); assay: Radioligand binding assay at rat A2A AR (rat brain striatum) vs. [^3H]MSX-2; details: rat (r); for Ki: rat brain striatum, n = 3, read-out: Ki ± SEM, A2A vs. [^3H]MSX-2
# T5 construct: A2A ARs of rat brain striatal membrane preparations; from tissue; host or cells: rat brain striatum membranes
# T5 sequence (P30543 whole entry): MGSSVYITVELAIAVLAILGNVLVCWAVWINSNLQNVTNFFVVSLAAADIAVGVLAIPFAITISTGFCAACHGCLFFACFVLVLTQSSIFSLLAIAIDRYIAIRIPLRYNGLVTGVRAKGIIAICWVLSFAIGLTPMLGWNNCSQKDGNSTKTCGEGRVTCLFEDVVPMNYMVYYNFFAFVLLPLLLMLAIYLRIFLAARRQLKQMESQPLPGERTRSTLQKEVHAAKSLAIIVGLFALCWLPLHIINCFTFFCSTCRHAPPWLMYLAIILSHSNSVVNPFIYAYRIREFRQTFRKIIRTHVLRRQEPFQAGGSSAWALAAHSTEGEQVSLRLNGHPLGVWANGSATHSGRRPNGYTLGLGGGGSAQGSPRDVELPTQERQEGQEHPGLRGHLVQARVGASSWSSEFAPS
# Method: as §1, §2
# [6] = molecular target: T6, recombinant human MAO-B (Homo sapiens, UniProt P27338); assay: Monoamine oxidase assay (Amplex Red), MAO-B; type: biochemical; details: for IC50: n = 3, read-out: IC50 ± SEM, Human MAO-B; for inhibition at 10 µM: at 10,000 nM (10 μM), read-out: % inhibition at indicated concentration, Human MAO-B
# T6 construct: purchased Sigma-Aldrich M7441; host or cells: baculovirus-infected insect cells
# T6 sequence (P27338 1-520): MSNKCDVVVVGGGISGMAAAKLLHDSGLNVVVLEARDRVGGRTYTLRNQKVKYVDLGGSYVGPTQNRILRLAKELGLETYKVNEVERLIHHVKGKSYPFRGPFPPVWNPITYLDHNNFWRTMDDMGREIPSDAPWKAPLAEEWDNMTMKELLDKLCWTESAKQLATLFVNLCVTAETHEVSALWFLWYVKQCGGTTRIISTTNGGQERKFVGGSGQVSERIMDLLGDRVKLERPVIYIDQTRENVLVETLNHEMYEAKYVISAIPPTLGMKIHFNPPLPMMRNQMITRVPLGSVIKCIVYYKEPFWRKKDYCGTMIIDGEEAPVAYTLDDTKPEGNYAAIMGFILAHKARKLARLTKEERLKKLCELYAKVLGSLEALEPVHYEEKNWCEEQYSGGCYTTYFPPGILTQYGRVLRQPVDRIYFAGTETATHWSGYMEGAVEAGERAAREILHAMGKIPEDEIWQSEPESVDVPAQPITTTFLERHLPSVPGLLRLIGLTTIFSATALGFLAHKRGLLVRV
# Method: as §3
# [7] = molecular target: T7, human A2A AR (Homo sapiens, UniProt P29274); assay: Radioligand binding assay at human A2A AR vs. [^3H]MSX-2; details: CHO cell membranes, n = 3, read-out: Ki ± SEM, A2A vs. [^3H]MSX-2
# T7 construct: expressed in transfected cells; host or cells: CHO cells
# T7 sequence (P29274 whole entry): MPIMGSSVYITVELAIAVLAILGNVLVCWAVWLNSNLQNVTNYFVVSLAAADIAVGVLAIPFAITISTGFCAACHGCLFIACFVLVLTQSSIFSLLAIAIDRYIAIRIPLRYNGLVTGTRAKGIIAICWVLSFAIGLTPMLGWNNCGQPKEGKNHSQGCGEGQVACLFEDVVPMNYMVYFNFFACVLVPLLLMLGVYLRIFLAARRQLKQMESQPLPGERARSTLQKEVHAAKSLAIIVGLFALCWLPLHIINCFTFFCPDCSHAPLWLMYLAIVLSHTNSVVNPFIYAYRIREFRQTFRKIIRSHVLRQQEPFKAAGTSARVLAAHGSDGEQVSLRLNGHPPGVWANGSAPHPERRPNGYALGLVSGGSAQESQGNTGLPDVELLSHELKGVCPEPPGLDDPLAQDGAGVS
# Method: as §1, §2
# [8] = molecular target: T8, human A1 AR (Homo sapiens, UniProt P30542); assay: Radioligand binding assay at human A1 AR vs. [^3H]CCPA; details: human (h); CHO cell membranes; n = 3
# T8 construct: expressed in transfected cells; host or cells: CHO cells
# T8 sequence (P30542 1-326): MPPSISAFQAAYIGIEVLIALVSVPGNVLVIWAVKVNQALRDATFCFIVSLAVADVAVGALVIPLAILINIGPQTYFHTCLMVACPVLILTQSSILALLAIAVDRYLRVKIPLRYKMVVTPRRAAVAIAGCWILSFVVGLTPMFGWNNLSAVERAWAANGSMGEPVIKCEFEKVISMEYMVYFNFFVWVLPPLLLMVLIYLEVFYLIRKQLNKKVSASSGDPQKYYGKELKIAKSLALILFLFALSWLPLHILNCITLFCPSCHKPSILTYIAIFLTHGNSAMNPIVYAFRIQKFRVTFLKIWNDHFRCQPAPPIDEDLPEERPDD
# Method: as §1, §2
Ki [1],Ki [2],"inhibition at 1 µM ([2]; at 1,000 nM, read-out: % inhibition of radioligand binding at indicated concentration, A3 vs. [^3H]PSB-11)",Ki [3],inhibition at 1 µM [3],inhibition at 10 µM [4],IC50 [4],Ki [5],IC50 [6],Ki [7],Ki [8],"% inhibition of radioligand binding at indicated concentration, A2A vs. [^3H]MSX-2 ([5]; at 1,000 nM)",inhibition at 10 µM [6],Structure (SMILES)
54 ± 9.1 nM,> 1000 nM,12%,> 1000 nM,39%,25%,> 10000 nM,1140 nM,6510 nM,4420 nM,–,–,–,"CCn1c(=O)c2c(nc3n2CCN(Cc2ccc(Br)cc2)C3)n(CC)c1=O [Compound 15e, 8-(4-bromobenzyl)-1,3-diethyl-6,7,8,9-tetrahydropyrazino[2,1-f]purine-2,4(1H,3H)-dione]"
588 ± 28 nM,7180 nM,–,> 1000 nM,32%,6%,–,> 1000 nM,–,–,129 ± 22 nM,40%,67%,"CCn1c(=O)c2c(nc3n2CCN(Cc2ccc(Cl)c(C(F)(F)F)c2)C3)n(CC)c1=O [Compound 15p, 8-(4-chloro-3-(trifluoromethyl)benzyl)-1,3-diethyl-6,7,8,9-tetrahydropyrazino[2,1-f]purine-2,4(1H,3H)-dione]"
36.2 ± 9.9 nM,15600 nM,–,> 1000 nM,1%,19%,> 10000 nM,981 ± 116 nM,3740 nM,–,298 ± 52 nM,–,–,"CCn1c(=O)c2c(nc3n2CCN(Cc2cc(F)cc(Cl)c2)C3)n(C)c1=O [Compound 14n, 8-(3-chloro-5-fluorobenzyl)-3-ethyl-1-methyl-6,7,8,9-tetrahydropyrazino[2,1-f]purine-2,4(1H,3H)-dione]"
47.2 ± 19.9 nM,7020 nM,–,> 1000 nM,9%,–,–,1580 nM,≥ 10000 nM,–,207 ± 11 nM,–,49%,"CCn1c(=O)c2c(nc3n2CCN(Cc2cccc(F)c2)C3)n(CC)c1=O [Compound 15b, 1,3-diethyl-8-(3-fluorobenzyl)-6,7,8,9-tetrahydropyrazino[2,1-f]purine-2,4(1H,3H)-dione]"
